Measured values reported in patent publication US10336752B2, “TYK2 inhibitors, uses, and methods for production thereof” (Nimbus Lakshmi, Inc., priority 2017, dated 2019).
Converted amounts (≈) assume the structure as drawn.

What was measured:
[1] = molecular target: TYK2 (Homo sapiens (Human), UniProt P29597); assay: 1 mM ATP Tyk2 Caliper Assay; assay type: biochemical; conditions: ATP 1000 uM
Method: Compounds were serially diluted in DMSO then further diluted in 1x kinase buffer: 5 uL of buffer diluted compound was added into wells first, then 10 uL of Tyk2 enzyme mix was added into wells, followed by 10 uL of substrate mix to start reaction. Reaction was incubated at 28° C. for 25 min and then added 25 uL stop buffer. The reaction mixture was read by a Caliper […]. Final concentrations for assay conditions were: 25 mM HEPES, pH 7.5, 0.01% Brij-35, 0.01% Triton, 0.5 mM EGTA, 2 mM DTT, 10 mM MgCl2, TYK2 4 nM, ATP concentration 1000 uM, and P30 3 uM.

[2] = Kinetic Solubility Determination Assay; assay type: physicochemical; conditions: aqueous buffer, kinetic from dmso stock, PBS pH 7.4, RT, read-out: Kin. Sol. pH 7.4
Method: Stock solutions of test compounds were prepared in DMSO at the concentration of 10 mM. The stock solutions of positive control compound were prepared in DMSO at the concentration of 30 mM. Progesterone was used as positive control in the assay. 30 μL stock solution of each compound was placed in order into their proper 96-well rack, followed by adding 970 μL of PBS at pH 7.4 into each vial of the cap-less solubility sample plate. This study was performed in duplicate. One stir stick was added to each vial and then vials were sealed using a molded PTDE/SIL 96-Well Plate Cover. The Solubility Sample plate was transferred to the Thermomixer Comfort plate shaker and incubated at RT for 2 hours with shaking at 1100 rpm. After 2 hours incubation, stir sticks were removed using a big magnet and all samples from the Solubility Sample plate were transferred into the filter plate. All the samples were filtered by using the vacuum manifold. The filtered samples were diluted with methanol. Standards of each test compound were prepared at 0.3, 0.09 and 0.1 μM concentrations and both the test samples and standards were analyzed by LC-MS and the test samples were quantified against a standard of known concentration in DMSO using mass spectral peak identification and quantitation.

[3] = CACO-2 Cell Permeability Assay; assay type: in vitro ADME; conditions: human, Caco-2, pH 7.4, apical to basolateral
Method: Caco-2 cells were diluted to 6.86×10^5 cells/mL with culture medium and 50 μL of cell suspension were dispensed into the filter well of the 96-well HTS Transwell plate. Cells were cultivated for 14˜18 days in a cell culture incubator at 37° C., 5% C02, 95% relative humidity. Cell culture medium was replaced every 2 days, beginning no later than 24 hours after initial plating. 3) After 14˜18 days incubation, the plates were removed from incubator. The inserts were washed twice with pre-warmed HBSS (10 mM HEPES, pH 7.4) and placed into receiver plates. 75 μL and 235 μL of buffer were added to each Transwell inserts and receiver wells, respectively. Then the plates were incubated for 30 min at 37° C. with shaking at 150 rpm. Stock solutions of control compound were prepared in DMSO at 10 mM and then diluted to 1 mM with DMSO followed by further diluting with HBSS (10 mM HEPES, pH 7.4) to get compound working solution. Stock solutions of test compound were prepared in DMSO at 10 mM and then diluted to 1 mM with DMSO followed by further diluting with HBSS (10 mM HEPES, pH 7.4, 4% BSA) to get compound working solution. The final concentration of test compound and control compound was 5 μM. To determine the rate of drug transport in the apical to basolateral direction, 75 μL of compound working solution was added to the filter well (apical compartment) and 235 μL of HBSS (10 mM HEPES, pH 7.4, or 4% BSA) to receiver plate (basolateral compartment). To determine the rate of drug transport in the basolateral to apical direction, 235 μL of compound working solution was added to each well of the receiver plate (basolateral compartment) and 75 μL of HBSS (10 mM HEPES, pH 7.4, or 4% BSA) to filter well (apical compartment). The assay was performed in duplicate. 6) Plates were incubated for 2 hours at 37° C. At the end of the transport period, aliquots of 50 μL were removed directly from the apical and basolateral wells and transferred to wells of new plates. Four volumes of cold Methanol containing internal standards (IS, 100 nM Alprazolam, 200 nM Labetalol and 200 nM Diclofenac) was added into each well. Samples were centrifuged at 3,220 g for 30 minutes. An aliquot of 100 μL of the supernatant mixed with 100 μL of ultra-pure water were used for LC-MS/MS analysis. 7) Solution was discarded from Transwell plates. 100 μL of Lucifer Yellow solution (100 μM in HBSS) and 300 μL of HBSS were added into each well of Transwell insert and receiver, respectively, for leakage determination. Plates were incubated at 37° C. for 30 minutes. 80 μL aliquots from wells of apical and basolateral sides were transferred to solid black plates and the plate was read with Tecan Infinite M 200 (Excitation/Emission wavelength 485 nm/530 nm). The liquid fractions, apical and basolateral layers were analyzed by LC-MS to determine Papp(A-B), Papp(B-A) and recovery.

[4] = Metabolic Clearance Assay in Microsomes (human liver microsomes); assay type: in vitro ADME; conditions: NADPH and UDPGA, read-out: HLM Clint
Method: A master solution was prepared containing 0.5 mg/mL of either rat or human liver microsomes, 5 mM MgCl2, 100 mM phosphate buffer, and 25 ug/mL alamethacin. 40 μL of 10 mM NADPH solution and 40 μL of 20 mM UDPGA solution were added to each well. The final concentrations of NADPH and UDPGA were 1 mM and 2 mM, respectively. The mixture was pre-warmed at 37° C. for 5 minutes. The negative control samples were prepared by replacing NADPH and UDPGA solutions with 80 μL of ultra-pure H2O. The negative control was used to exclude the misleading factor that resulted from instability of chemical itself. This study was performed in duplicate. The reaction was started with the addition of 2 μL of 400 μM control compound or test compound solutions. Diclofenac was used as positive control in this study. The final concentration of test compound or control compound was 2 μM. Aliquots of 50 μL were taken from the reaction solution at 0, 15, 30, 45 and 60 minutes. The reaction was stopped by the addition of 4 volumes of cold acetonitrile (or methanol) with internal standard (IS) (100 nM alprazolam, 200 nM imipramine, 200 nM labetalol and 2 μM ketoprofen) at the designated time points. Samples were centrifuged at 3,220 g for 40 minutes to precipitate protein. Aliquot of 100 μL supernatant diluted by 100 μL of water was used for LC-MS/MS analysis. The in vitro half-life, scale-up intrinsic clearance, and predicted hepatic clearance were calculated according to standard calculations.

[5] = Dissolution Assay in Fasted Simulated Gastric Fluid; assay type: physicochemical; conditions: 37° C., 50 rpm, compressed disc
Method: The dissolution bath was filled with 900 mL of media for testing, the bath temperature held at 37° C., the rotation rate of the apparatus was 50 rpm, the draw point for the sampling probe was set exactly halfway between the surface of the media and the surface of the disc. The test article (0.4 g) was compressed into a disc using a Woods apparatus. The sampling time points were 10, 30, 60, 90, 120, 150 & 180. The samples were analysed by HPLC for concentration against a sample preparation of known concentration (ca. 0.5 mg/ml). Dissolution rate was derived from the curve of concentration against time.

[6] = Pharmacokinetic Study in Dogs; assay type: in vivo; conditions: male, Beagle; dog, oral gavage 10 mg/kg, 20% HPβCD aq., plasma
Method: Male Beagle dogs (9-14 kg; 2.5 to 5.5 years of age) housed one per cage under standard laboratory conditions were fasted for approximately 16 to 17 hours prior to dosing with food returned approximately 2 hours after dosing. […] Blood samples were collected from the jugular vein (˜1.5 mL) by venipuncture, and stored in tubes treated with K2EDTA, then centrifuged (3000 g, 4° C., 5 min). The plasma samples were transferred and stored at −70° C. until analysis. Bioanalysis: Concentrations for experimental samples and plasma calibration standards were determined by LC/MS/MS (API-5500, reverse-phase chromatography, APCI) following extraction by plasma precipitation with cold acetonitrile (4:1 ACN/plasma by volume) containing verapamil as an internal standard. PK Analysis: The individual animal plasma concentration-time data was analyzed by noncompartmental analysis (linear trapazoidal fitting) using PK Solver software (v2.0).

[7] = Solid form stability of Compound 1 mesylate forms; assay type: physicochemical; conditions: for solid form stability at ambient conditions: drying / ambient conditions

Sequence of TYK2 (P29597 whole entry): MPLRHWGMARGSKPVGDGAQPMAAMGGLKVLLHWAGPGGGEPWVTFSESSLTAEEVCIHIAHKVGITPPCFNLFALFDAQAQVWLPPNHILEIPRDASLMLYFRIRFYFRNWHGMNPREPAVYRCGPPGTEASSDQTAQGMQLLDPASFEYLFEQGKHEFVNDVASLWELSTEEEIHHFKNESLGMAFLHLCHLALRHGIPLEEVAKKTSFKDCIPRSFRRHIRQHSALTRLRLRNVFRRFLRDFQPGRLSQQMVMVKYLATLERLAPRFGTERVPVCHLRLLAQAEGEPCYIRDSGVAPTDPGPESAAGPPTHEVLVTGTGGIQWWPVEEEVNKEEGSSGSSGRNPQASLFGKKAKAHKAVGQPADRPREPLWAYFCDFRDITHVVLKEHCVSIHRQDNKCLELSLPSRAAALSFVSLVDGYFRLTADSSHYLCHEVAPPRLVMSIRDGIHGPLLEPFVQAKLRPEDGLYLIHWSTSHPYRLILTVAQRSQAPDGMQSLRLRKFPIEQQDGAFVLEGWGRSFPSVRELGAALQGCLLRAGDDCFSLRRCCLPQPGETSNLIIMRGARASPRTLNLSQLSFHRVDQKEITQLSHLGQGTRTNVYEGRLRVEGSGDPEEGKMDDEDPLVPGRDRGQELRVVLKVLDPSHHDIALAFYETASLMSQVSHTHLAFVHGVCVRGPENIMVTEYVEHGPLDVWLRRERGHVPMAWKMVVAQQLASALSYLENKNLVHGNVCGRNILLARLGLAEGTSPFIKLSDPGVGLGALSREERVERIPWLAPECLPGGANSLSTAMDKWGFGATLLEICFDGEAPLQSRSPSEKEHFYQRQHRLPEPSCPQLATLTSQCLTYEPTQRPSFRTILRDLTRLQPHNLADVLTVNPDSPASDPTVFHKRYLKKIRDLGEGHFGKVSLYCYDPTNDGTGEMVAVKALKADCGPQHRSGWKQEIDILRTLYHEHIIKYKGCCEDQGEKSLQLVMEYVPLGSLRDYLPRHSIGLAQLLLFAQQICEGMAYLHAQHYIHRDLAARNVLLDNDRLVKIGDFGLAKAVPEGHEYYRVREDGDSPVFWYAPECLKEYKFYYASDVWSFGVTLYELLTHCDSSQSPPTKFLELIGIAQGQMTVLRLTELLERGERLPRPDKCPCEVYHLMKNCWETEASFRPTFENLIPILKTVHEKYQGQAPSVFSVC

SMILES | IC50 [1] [nM] | solubility kinetic at 2 h [2] [µM] | Papp A→B at 2 h, 5 μM [3] [×10⁻⁶ cm/s] | CLint scaled at 2 μM [4] [mL/min/kg] | solid form stability at ambient conditions [7] | solid form stability upon grinding ([7]; grinding) | dissolution rate in Fasted Simulated Gastric Fluid (FaSSGF) [5] [μg/cm^2/min] | AUC(0-t) [6] [ng·h/mL] | Cmax [6] [ng/mL]
CCN(CC)C(=O)c1ccc(Nc2cc(-c3c(F)cccc3F)nc3c2C(=O)NC3)cc1 [Compound 11] | 119 | 1.86 (≈ 0.812 µg/mL) | 5.62 |  |  |  |  |  | 
O=C1NCc2nc(-c3c(F)cccc3F)cc(Nc3ccc(N4CCOCC4)cn3)c21 [Compound 8] | 33 | 11.9 (≈ 5.05 µg/mL) | 13.1 | 1.2 |  |  |  |  | 
N#Cc1cccc(F)c1-c1cc(Nc2ccc(C(=O)N3CCOCC3)cc2)c2c(n1)CNC2=O [Compound 14] | 24.2 | 271 (≈ 124 µg/mL) | 2.08 |  |  |  |  |  | 
O=C1NCc2nc(-c3c(F)cccc3F)cc(Nc3ccc(N4CCCC4)cn3)c21 [Compound 7] | 390 | < 0.5 | 13.5 | 10.9 |  |  |  |  | 
O=C1NCc2nc(-c3c(F)cccc3F)cc(Nc3ccc(C(=O)N4CCOCC4)cc3)c21 [Compound 9] | 134 | 172 (≈ 77.3 µg/mL) | 3.43 | 3 |  |  | 21.2 | 10200 | 1070
N#Cc1cccc(F)c1-c1cc(Nc2ccc(C(=O)N3CCCC3)cc2)c2c(n1)CNC2=O [Compound 16] | 17.7 | 32.9 (≈ 14.5 µg/mL) | 2.63 |  |  |  |  |  | 
O=C1NCc2nc(-c3c(F)cccc3F)cc(Nc3ccc(C(=O)N4CCOCC4)nc3)c21 [Compound 13] |  | 252 (≈ 114 µg/mL) | 2.89 | 1.9 |  |  |  |  | 

Second part, led by results:

IC50 [1] [nM] | solubility kinetic at 2 h [2] [µM] | Papp A→B at 2 h, 5 μM [3] [×10⁻⁶ cm/s] | CLint scaled at 2 μM [4] [mL/min/kg] | solid form stability at ambient conditions [7] | solid form stability upon grinding ([7]; grinding) | SMILES | dissolution rate in Fasted Simulated Gastric Fluid (FaSSGF) [5] [μg/cm^2/min] | AUC(0-t) [6] [ng·h/mL] | Cmax [6] [ng/mL]
 | 274 (≈ 119 µg/mL) | 5.77 | 0.62 |  |  | O=C1NCc2nc(-c3c(F)cccc3F)cc(Nc3ccc(C(=O)N4CCCC4)cc3)c21 [Compound 1] | 57.5 | 18700 | 2100
 |  |  |  | transition to Form IV |  | CS(=O)(=O)O.O=C1NCc2nc(-c3c(F)cccc3F)cc(Nc3ccc(C(=O)N4CCCC4)cc3)c21 [Form III of Compound 1 mesylate] |  |  | 
74.1 | 3.75 (≈ 1.58 µg/mL) | 7.59 | 1.78 |  |  | O=C1NCc2nc(-c3c(F)cccc3F)cc(Nc3ccc(C(=O)N4CCC4)cc3)c21 [Compound 15] |  |  | 
90 | 1.45 (≈ 0.65 µg/mL) | 4.03 | 7.81 |  |  | O=C1NCc2nc(-c3c(F)cccc3F)cc(Nc3ccc(C(=O)N4CCCCC4)cc3)c21 [Compound 10] |  |  | 
88.6 | 205 (≈ 97.5 µg/mL) | 1.52 |  |  |  | O=C1NCc2nc(-c3c(F)cccc3F)cc(Nc3ccc(C(=O)N4C[C@H]5COC[C@H]5C4)cc3)c21 [Compound 17] |  |  | 
 |  |  |  |  | transition to Form I | CS(=O)(=O)O.O=C1NCc2nc(-c3c(F)cccc3F)cc(Nc3ccc(C(=O)N4CCCC4)cc3)c21 [Form V of Compound 1 mesylate] |  |  | 
136 | 237 (≈ 113 µg/mL) | 0.41 |  |  |  | CC1(O)CCN(C(=O)c2ccc(Nc3cc(-c4c(F)cccc4F)nc4c3C(=O)NC4)cc2)CC1 [Compound 12] |  |  | 
 |  |  |  | stable |  | CS(=O)(=O)O.O=C1NCc2nc(-c3c(F)cccc3F)cc(Nc3ccc(C(=O)N4CCCC4)cc3)c21 [Form IV of Compound 1 mesylate] |  |  | 
